# Test results: PubChem BioAssay AID330 (DTP/NCI, 2004)
# Values joined by “and” are separate entries in the source; they are usually repeats but may differ in a detail not shown here. Equal entries are not always repeated. Inconclusive results and toxic doses are left out. Peptide text beside a SMILES is read from it.
# Tested on: P388 leukemia ip, CD2F1 mice, survival T/C
# Test: NCI In Vivo Anticancer Drug Screen. Data for tumor model P388 Leukemia (intraperitoneal) in CD2F1 (CDF1) mice
# Conditions: endpoint: median survival time, higher = longer survival
# Procedure, shortened: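 Mice carrying the transplanted tumor received test compound or vehicle. Survival was recorded in each group, and the value is the treated-group measurement divided by that of the vehicle-treated control group.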
# [1] = dose: 50.0 mg/kg/injection, schedule: Q01DX005 (ip), vehicle: Klucel (hydroxypropylcellulose) (HPC)
# [2] = dose: 100.0 mg/kg/injection, schedule: Q01DX005 (ip), vehicle: Klucel (hydroxypropylcellulose) (HPC)
# [3] = dose: 200.0 mg/kg/injection, schedule: Q01DX005 (ip), vehicle: Klucel (hydroxypropylcellulose) (HPC)
compound,measurement,setting,value
CC(=O)C1(O)Cc2c(O)c3c(c(O)c2C(OC2CC(N)C(O)C(C)O2)C1)C(=O)c1ccccc1C3=O (configuration not stated),T/C,"dose: 0.03 mg/kg/injection, schedule: Q01DX009 (ip), vehicle: water",116 % of control
same,T/C,"dose: 0.1 mg/kg/injection, schedule: Q01DX009 (ip), vehicle: water",150 % of control and 155 % of control and 158 % of control
same,T/C,"dose: 0.12 mg/kg/injection, schedule: Q01DX005 (ip), vehicle: water",151 % of control
same,T/C,"dose: 0.15 mg/kg/injection, schedule: Q04DX003 (ip), vehicle: water",106 % of control
same,T/C,"dose: 0.2 mg/kg/injection, schedule: Q01DX009 (ip), vehicle: water",167 % of control and 171 % of control and 183 % of control
same,T/C,"dose: 0.21 mg/kg/injection, schedule: Q04DX003 (ip), vehicle: water",166 % of control
same,T/C,"dose: 0.25 mg/kg/injection, schedule: Q01DX005 (ip), vehicle: water",164 % of control
same,T/C,"dose: 0.3 mg/kg/injection, schedule: Q04DX003 (ip), vehicle: water",114 % of control
same,T/C,"dose: 0.36 mg/kg/injection, schedule: Q04DX003 (ip), vehicle: water",170 % of control
same,T/C,"dose: 0.39 mg/kg/injection, schedule: Q01DX009 (ip), vehicle: water",170 % of control
same,T/C,"dose: 0.4 mg/kg/injection, schedule: Q01DX009 (ip), vehicle: water",205 % of control
same,T/C,"dose: 0.5 mg/kg/injection, schedule: Q01DX005 (ip), vehicle: water",180 % of control
same,T/C,"dose: 0.5 mg/kg/injection, schedule: Q01DX005 (oral), vehicle: water",104 % of control
same,T/C,"dose: 0.6 mg/kg/injection, schedule: Q04DX003 (ip), vehicle: water",118 % of control
same,T/C,"dose: 0.78 mg/kg/injection, schedule: Q01DX009 (ip), vehicle: water",173 % of control
same,T/C,"dose: 1.0 mg/kg/injection, schedule: Q01DX005 (ip), vehicle: water",114 % of control
same,T/C,"dose: 1.0 mg/kg/injection, schedule: Q01DX005 (oral), vehicle: water",107 % of control
same,T/C,"dose: 1.3 mg/kg/injection, schedule: Q01DX001 (ip), vehicle: water",97 % of control
same,T/C,"dose: 1.8 mg/kg/injection, schedule: Q01DX001 (ip), vehicle: water",97 % of control
same,T/C,"dose: 2.0 mg/kg/injection, schedule: Q01DX005 (oral), vehicle: water",112 % of control
same,T/C,"dose: 2.4 mg/kg/injection, schedule: Q04DX003 (ip), vehicle: water",152 % of control and 174 % of control
same,T/C,"dose: 4.0 mg/kg/injection, schedule: Q01DX005 (oral), vehicle: water",152 % of control
same,T/C,"dose: 4.8 mg/kg/injection, schedule: Q04DX003 (ip), vehicle: water",102 % of control and 106 % of control
same,T/C,"dose: 8.0 mg/kg/injection, schedule: Q01DX005 (oral), vehicle: water",107 % of control
same,T/C,"dose: 9.6 mg/kg/injection, schedule: Q04DX003 (ip), vehicle: water",96 % of control
CCC(C)C(NC(=O)C(Cc1ccccc1)NC(=O)C(N)CSC)C(N)=O (stereo not drawn) (H-Cys(Me)-Phe-Ile-NH2; configuration not given here),T/C,[1],102 % of control
same,T/C,[2],99 % of control
same,T/C,[3],99 % of control
COC(=O)C1=CO[C@@H](O)[C@@H]2C(C)OC(=O)C[C@H]12 (some centres not stated),T/C,"dose: 60.0 mg/kg/injection, schedule: Q01DX005 (ip), vehicle: saline",104 % of control
same,T/C,"dose: 120.0 mg/kg/injection, schedule: Q01DX005 (ip), vehicle: saline",104 % of control
same,T/C,"dose: 240.0 mg/kg/injection, schedule: Q01DX005 (ip), vehicle: saline",109 % of control
COC(=O)c1ccc2c(c1)C(NC(C)=O)CCc1cc(OC)c(OC)c(OC)c1-2 (configuration not stated),T/C,"dose: 0.25 mg/kg/injection, schedule: Q01DX005 (ip), vehicle: saline",106 % of control
same,T/C,"dose: 0.5 mg/kg/injection, schedule: Q01DX005 (ip), vehicle: saline",99 % of control
same,T/C,"dose: 1.0 mg/kg/injection, schedule: Q01DX005 (ip), vehicle: saline",101 % of control
same,T/C,"dose: 2.0 mg/kg/injection, schedule: Q01DX005 (ip), vehicle: saline",106 % of control
same,T/C,"dose: 4.0 mg/kg/injection, schedule: Q01DX005 (ip), vehicle: saline",114 % of control
CC1(C)CC23C4COC(=O)C2CCC1C3CC4=O (configuration not stated),T/C,"dose: 1.5 mg/kg/injection, schedule: Q01DX009 (ip), vehicle: DMSO",94 % of control
same,T/C,"dose: 3.0 mg/kg/injection, schedule: Q01DX009 (ip), vehicle: DMSO",107 % of control and 94 % of control
same,T/C,"dose: 6.0 mg/kg/injection, schedule: Q01DX009 (ip), vehicle: DMSO",104 % of control and 91 % of control
same,T/C,"dose: 12.0 mg/kg/injection, schedule: Q01DX009 (ip), vehicle: DMSO",88 % of control and 95 % of control
same,T/C,"dose: 24.0 mg/kg/injection, schedule: Q01DX009 (ip), vehicle: DMSO",90 % of control
same,T/C,"dose: 48.0 mg/kg/injection, schedule: Q01DX009 (ip), vehicle: DMSO",106 % of control and 91 % of control
CN(C)CCOC(=O)C(C)(C)Sc1ccc(Cl)cc1,T/C,"dose: 60.0 mg/kg/injection, schedule: Q01DX005 (ip), vehicle: saline with Tween-80",107 % of control
same,T/C,"dose: 120.0 mg/kg/injection, schedule: Q01DX005 (ip), vehicle: saline with Tween-80",92 % of control
same,T/C,"dose: 240.0 mg/kg/injection, schedule: Q01DX005 (ip), vehicle: saline with Tween-80",98 % of control
Nc1ncnc2c1nc([Se])n2C1OC(CO)C(O)C1O (configuration not stated),T/C,"dose: 25.0 mg/kg/injection, schedule: Q01DX005 (ip), vehicle: other",97 % of control
same,T/C,"dose: 100.0 mg/kg/injection, schedule: Q01DX005 (ip), vehicle: other",97 % of control
same,T/C,"dose: 200.0 mg/kg/injection, schedule: Q01DX005 (ip), vehicle: other",86 % of control
same,T/C,"dose: 400.0 mg/kg/injection, schedule: Q01DX005 (ip), vehicle: other",105 % of control
[Mn+2].[O-]c1cc(Br)ccc1/C=N/Nc1ccccn1.[O-]c1cc(Br)ccc1/C=N/Nc1ccccn1,T/C,"dose: 100.0 mg/kg/injection, schedule: Q01DX005 (ip), vehicle: saline with Tween-80",87 % of control
same,T/C,"dose: 200.0 mg/kg/injection, schedule: Q01DX005 (ip), vehicle: saline with Tween-80",91 % of control
same,T/C,"dose: 400.0 mg/kg/injection, schedule: Q01DX005 (ip), vehicle: saline with Tween-80",100 % of control
Cc1ccc(O)c(C(=NCCN=C(c2ccccc2)c2cc(C)ccc2O)c2ccccc2)c1,T/C,[1],103 % of control and 106 % of control and 98 % of control
same,T/C,[2],100 % of control and 104 % of control and 118 % of control
same,T/C,[3],100 % of control and 101 % of control and 121 % of control
same,T/C,"dose: 400.0 mg/kg/injection, schedule: Q01DX005 (ip), vehicle: Klucel (hydroxypropylcellulose) (HPC)",96 % of control
O=C(O)c1ccccc1Cc1cccc2ccccc12,T/C,"dose: 100.0 mg/kg/injection, schedule: Q04DX002 (ip), vehicle: Klucel (hydroxypropylcellulose) (HPC)",91 % of control
same,T/C,"dose: 200.0 mg/kg/injection, schedule: Q04DX002 (ip), vehicle: Klucel (hydroxypropylcellulose) (HPC)",96 % of control
same,T/C,"dose: 400.0 mg/kg/injection, schedule: Q04DX002 (ip), vehicle: Klucel (hydroxypropylcellulose) (HPC)",99 % of control
COC(=O)c1nn(-c2ccccc2)c2c1C(=O)c1ccccc1C2=O,T/C,[1],97 % of control
same,T/C,[2],92 % of control
same,T/C,[3],98 % of control
c1ccc2c(c1)CC/C2=N\OCC1CO1 (configuration not stated),T/C,"dose: 100.0 mg/kg/injection, schedule: Q04DX002 (ip), vehicle: saline with Tween-80",102 % of control
same,T/C,"dose: 200.0 mg/kg/injection, schedule: Q04DX002 (ip), vehicle: saline with Tween-80",104 % of control
same,T/C,"dose: 400.0 mg/kg/injection, schedule: Q04DX002 (ip), vehicle: saline with Tween-80",106 % of control
O=C1C(=O)C2c3ccccc3C1c1ccccc12,T/C,"dose: 50.0 mg/kg/injection, schedule: Q04DX002 (ip), vehicle: suspension in saline",101 % of control
same,T/C,"dose: 100.0 mg/kg/injection, schedule: Q04DX002 (ip), vehicle: suspension in saline",106 % of control
same,T/C,"dose: 200.0 mg/kg/injection, schedule: Q04DX002 (ip), vehicle: suspension in saline",112 % of control
C[CH2][Sn]([CH2]C)[O][Sn]([Cl])([CH2]C)[CH2]C,T/C,"dose: 3.12 mg/kg/injection, schedule: Q01DX005 (ip), vehicle: Klucel (hydroxypropylcellulose) (HPC)",116 % of control
same,T/C,"dose: 6.25 mg/kg/injection, schedule: Q01DX005 (ip), vehicle: Klucel (hydroxypropylcellulose) (HPC)",118 % of control and 121 % of control
same,T/C,"dose: 12.5 mg/kg/injection, schedule: Q01DX005 (ip), vehicle: Klucel (hydroxypropylcellulose) (HPC)",104 % of control and 121 % of control
same,T/C,"dose: 25.0 mg/kg/injection, schedule: Q01DX005 (ip), vehicle: Klucel (hydroxypropylcellulose) (HPC)",120 % of control
NC(=O)CCCNC(=O)CCC[c-]1[c-][c-][c-][c-]1.[Fe].[c-]1[c-][c-][cH-][c-]1,T/C,"dose: 3.13 mg/kg/injection, schedule: Q01DX009 (ip), vehicle: other",102 % of control
same,T/C,"dose: 6.25 mg/kg/injection, schedule: Q01DX009 (ip), vehicle: other",102 % of control
same,T/C,"dose: 12.5 mg/kg/injection, schedule: Q01DX009 (ip), vehicle: other",99 % of control and 96 % of control
same,T/C,"dose: 25.0 mg/kg/injection, schedule: Q01DX009 (ip), vehicle: other",123 % of control
same,T/C,"dose: 50.0 mg/kg/injection, schedule: Q01DX009 (ip), vehicle: other",111 % of control and 118 % of control
